Assay results: patent publication US12435079B2, “Bruton's tyrosine kinase inhibitors” (priority 2019, dated 2025)

Each compound was assayed against T1, BTK (Homo sapiens, UniProt Q06187) (assay: BTK Kinase Assay (ADP-Glo)). Settings: BTK enzyme, 50 μM ATP, one hour incubation, ADP-Glo luminescence; read-out: BTK Inhibition.
T1 construct: purchased Promega V2941
Assay type: biochemical
Protocol: The BTK assay is performed using the BTK Kinase Enzyme System (Promega; Catalog #: V2941) and ADP-Glo™ Kinase Assay kit (Promega; Catalog #: V9101). Measurement were performed in a reaction volume of 5 μL using 384-well assay plate (Corning; Catalog #: 3570). 6 ng BTK enzyme, inhibitor or 1% DMSO, 1 μg Poly(Glu4, Tyr1) peptide, and 50 μM ATP were incubated in a reaction buffer composed of 40 mM Tris-Cl (pH7.5), 20 mM MgCl2, 0.1 mg/mL BSA, 50 μM DTT and 2 mM MnCl2 for one hour. ADP was detected as described in ADP-Glo™ Kinase Assay kit using 5 μl of ADP-Glo™ Reagent and 10 μl of Kinase Detection Reagent. Luminescence was recorded using a multimode plate reader (EnVision® Multilabel Reader, Perkin Elmer). There is a linear relationship between the luminescent signal and the amount of ADP in the reaction buffer. For each compound, enzyme activity was measured at various concentrations of compound, Negative control reactions were performed in the absence of inhibitor in three replicates and six no enzyme controls were used to determine baseline luminescence levels. Dose response curve were generated to determine the concentration required for IC50 of BTK activity.
The compound numbers correspond to the compound numbers in previous Tables. Compounds having an activity designated as “A” provided an IC 50≤10 nM; Compounds having an activity designated as “B” provided an IC50 10-100 nM; Compounds having an activity designated as “C” provided an IC50 100-1000 nM; Compounds having an activity designated as “D” provided an IC50 1000-10000 nM; Compounds having an activity designated as “E” provided an IC50≥10000 nM.

T1 sequence (Q06187 whole entry): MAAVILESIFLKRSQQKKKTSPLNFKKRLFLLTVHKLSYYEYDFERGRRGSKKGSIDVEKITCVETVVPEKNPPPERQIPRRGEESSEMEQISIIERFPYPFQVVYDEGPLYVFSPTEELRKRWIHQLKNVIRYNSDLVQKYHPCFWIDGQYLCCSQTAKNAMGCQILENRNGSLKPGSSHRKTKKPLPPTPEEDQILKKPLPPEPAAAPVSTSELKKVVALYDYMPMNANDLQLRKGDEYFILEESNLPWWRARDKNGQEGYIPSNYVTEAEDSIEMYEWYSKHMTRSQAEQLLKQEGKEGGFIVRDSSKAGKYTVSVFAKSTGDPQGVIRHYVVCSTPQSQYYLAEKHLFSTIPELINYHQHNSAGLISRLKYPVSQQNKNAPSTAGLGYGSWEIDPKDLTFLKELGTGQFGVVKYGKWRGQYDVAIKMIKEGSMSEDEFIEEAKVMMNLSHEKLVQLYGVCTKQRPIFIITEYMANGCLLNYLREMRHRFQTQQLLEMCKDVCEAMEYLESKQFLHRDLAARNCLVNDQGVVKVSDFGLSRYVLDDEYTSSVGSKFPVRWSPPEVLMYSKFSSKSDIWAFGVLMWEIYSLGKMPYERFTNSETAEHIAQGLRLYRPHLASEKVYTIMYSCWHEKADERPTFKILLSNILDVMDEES

SMILES | IC50
COc1cccc(Oc2ccc(-c3nc(C4CCC(O)CC4)n4ccnc(N)c34)cc2)c1F (stereo not drawn) [Compound 2, 4-{8-Amino-1-[4-(2-fluoro-3-methoxy-phenoxy)-phenyl]-imidazo[1,5-a]pyrazin-3-yl}-cyclohexanol] | ≤ 10 nM
Nc1nccn2c(C3CCCC(O)C3)nc(-c3ccc(Oc4ccccc4)cc3)c12 (stereo not drawn) [Compound 1, 3-[8-Amino-1-(4-phenoxy-phenyl)-imidazo[1,5-a]pyrazin-3-yl]-cyclohexanol] | ≤ 10 nM
COc1cccc(Oc2ccc(-c3nc([C@@H]4CCC[C@@H](O)C4)n4ccnc(N)c34)cc2)c1F [Compound 4] | ≤ 10 nM
Nc1nccn2c(C3CCC(O)CC3)nc(-c3ccc(Oc4cccc(Cl)c4F)cc3)c12 (stereo not drawn) [Compound 6, 4-{8-Amino-1-[4-(3-chloro-2-fluoro-phenoxy)-phenyl]-imidazo[1,5-a]pyrazin-3-yl}-cyclohexanol] | ≤ 10 nM
Nc1nccn2c1c(-c1ccc(Oc3ccccc3)cc1)nc2[C@H]1CC[C@H](O)CC1 [Compound 5, 4-[8-Amino-1-(4-phenoxy-phenyl)-imidazo[1,5-a]pyrazin-3-yl]-cyclohexanol] | ≤ 10 nM

Results, then the compound that gave them:

IC50 | SMILES
≤ 10 nM | COc1ccccc1C(=O)NCc1ccc(-c2nc(C3CCC(O)CC3)n3ccnc(N)c23)cc1 (stereo not drawn) [Compound 11]
≤ 10 nM | Cc1cccc(Oc2ccc(-c3nc(C4CCC(O)CC4)n4ccnc(N)c34)cc2)c1 (stereo not drawn) [Compound 8, 4-[8-Amino-1-(4-m-tolyloxy-phenyl)-imidazo[1,5-a]pyrazin-3-yl]-cyclohexanol]
10 to 100 nM | Nc1nccn2c(C3CCC(O)CC3)nc(-c3ccc(Oc4cccc(Cl)c4)cc3)c12 (stereo not drawn) [Compound 7]
10 to 100 nM | COc1cccc(Oc2ccc(-c3nc(C4CCC(O)CC4)n4ccnc(N)c34)cc2)c1C (stereo not drawn) [Compound 9, 4-{8-Amino-1-[4-(3-methoxy-2-methyl-phenoxy)-phenyl]-imidazo[1,5-a]pyrazin-3-yl}-cyclohexanol]
